Results as given in the NIST ThermoML archive (doi:10.1021/je7000667).

Experiment: xn = mol fraction of the nth substance listed
Settings: Gas, Burnett expansion method

FC(C(F)(F)F)C(F)(F)F [1,1,1,2,3,3,3-heptafluoropropane] + FCF
Settings	mass density [kg/m3]
310 K, 149.52 kPa, x2 = 0.2648	8.291
310 K, 189.1 kPa, x2 = 0.5155	8.255
310 K, 204.07 kPa, x2 = 0.2648	11.439
310 K, 207.98 kPa, x2 = 0.7809	6.449
310 K, 258.01 kPa, x2 = 0.5155	11.389
310 K, 277.27 kPa, x2 = 0.2648	15.782
310 K, 284.06 kPa, x2 = 0.7809	8.897
310 K, 350.46 kPa, x2 = 0.5155	15.712
310 K, 374.4 kPa, x2 = 0.2648	21.774
310 K, 386.48 kPa, x2 = 0.7809	12.274
310 K, 473.07 kPa, x2 = 0.5155	21.676
310 K, 501.26 kPa, x2 = 0.2648	30.041
310 K, 523.12 kPa, x2 = 0.7809	16.934
310 K, 633.01 kPa, x2 = 0.5155	29.904
310 K, 662.59 kPa, x2 = 0.2648	41.446
310 K, 702.73 kPa, x2 = 0.7809	23.363
310 K, 836.5 kPa, x2 = 0.5155	41.255
310 K, 932.7 kPa, x2 = 0.7809	32.232
310 K, 1221.3 kPa, x2 = 0.7809	44.426
310 K, 1562.6 kPa, x2 = 0.7809	61.291
320 K, 154.66 kPa, x2 = 0.2648	8.285
320 K, 195.61 kPa, x2 = 0.5155	8.251
320 K, 211.27 kPa, x2 = 0.2648	11.431
320 K, 215.08 kPa, x2 = 0.7809	6.445
320 K, 267.14 kPa, x2 = 0.5155	11.383
320 K, 287.44 kPa, x2 = 0.2648	15.771
320 K, 294.06 kPa, x2 = 0.7809	8.892
320 K, 363.38 kPa, x2 = 0.5155	15.704
320 K, 388.88 kPa, x2 = 0.2648	21.758
320 K, 400.53 kPa, x2 = 0.7809	12.268
320 K, 491.5 kPa, x2 = 0.5155	21.665
320 K, 522.08 kPa, x2 = 0.2648	30.019
320 K, 543.05 kPa, x2 = 0.7809	16.926
320 K, 659.5 kPa, x2 = 0.5155	29.889
320 K, 693.04 kPa, x2 = 0.2648	41.416
320 K, 731.28 kPa, x2 = 0.7809	23.351
320 K, 875.19 kPa, x2 = 0.5155	41.235
320 K, 904.5 kPa, x2 = 0.2648	57.14
320 K, 974.36 kPa, x2 = 0.7809	32.216
320 K, 1142.5 kPa, x2 = 0.5155	56.888
320 K, 1282.2 kPa, x2 = 0.7809	44.404
320 K, 1653.9 kPa, x2 = 0.7809	61.261
320 K, 2072.7 kPa, x2 = 0.7809	84.517
330 K, 159.77 kPa, x2 = 0.2648	8.281
330 K, 202.1 kPa, x2 = 0.5155	8.247
330 K, 218.42 kPa, x2 = 0.2648	11.425
330 K, 222.17 kPa, x2 = 0.7809	6.442
330 K, 276.22 kPa, x2 = 0.5155	11.377
330 K, 297.52 kPa, x2 = 0.2648	15.763
330 K, 303.95 kPa, x2 = 0.7809	8.888
330 K, 376.17 kPa, x2 = 0.5155	15.696
330 K, 403.18 kPa, x2 = 0.2648	21.748
330 K, 414.44 kPa, x2 = 0.7809	12.262
330 K, 509.64 kPa, x2 = 0.5155	21.654
330 K, 542.59 kPa, x2 = 0.2648	30.004
330 K, 562.74 kPa, x2 = 0.7809	16.917
330 K, 685.57 kPa, x2 = 0.5155	29.874
330 K, 722.83 kPa, x2 = 0.2648	41.396
330 K, 759.44 kPa, x2 = 0.7809	23.34
330 K, 913.06 kPa, x2 = 0.5155	41.214
330 K, 948.75 kPa, x2 = 0.2648	57.112
330 K, 1015.2 kPa, x2 = 0.7809	32.2
330 K, 1198.4 kPa, x2 = 0.5155	56.859
330 K, 1218.7 kPa, x2 = 0.2648	78.795
330 K, 1341.7 kPa, x2 = 0.7809	44.382
330 K, 1540 kPa, x2 = 0.5155	78.443
330 K, 1742.4 kPa, x2 = 0.7809	61.23
330 K, 2206.8 kPa, x2 = 0.7809	84.475
340 K, 164.86 kPa, x2 = 0.2648	8.277
340 K, 208.54 kPa, x2 = 0.5155	8.243
340 K, 225.54 kPa, x2 = 0.2648	11.42
340 K, 229.21 kPa, x2 = 0.7809	6.439
340 K, 285.24 kPa, x2 = 0.5155	11.372
340 K, 307.52 kPa, x2 = 0.2648	15.755
340 K, 313.78 kPa, x2 = 0.7809	8.884
340 K, 388.85 kPa, x2 = 0.5155	15.688
340 K, 417.35 kPa, x2 = 0.2648	21.737
340 K, 428.24 kPa, x2 = 0.7809	12.256
340 K, 527.64 kPa, x2 = 0.5155	21.643
340 K, 562.85 kPa, x2 = 0.2648	29.989
340 K, 582.27 kPa, x2 = 0.7809	16.909
340 K, 711.31 kPa, x2 = 0.5155	29.859
340 K, 752.13 kPa, x2 = 0.2648	41.375
340 K, 787.28 kPa, x2 = 0.7809	23.328
340 K, 950.24 kPa, x2 = 0.5155	41.194
340 K, 991.76 kPa, x2 = 0.2648	57.084
340 K, 1055.4 kPa, x2 = 0.7809	32.184
340 K, 1252.9 kPa, x2 = 0.5155	56.831
340 K, 1283.1 kPa, x2 = 0.2648	78.756
340 K, 1399.9 kPa, x2 = 0.7809	44.36
340 K, 1614 kPa, x2 = 0.2648	108.656
340 K, 1621.4 kPa, x2 = 0.5155	78.404
340 K, 1828.5 kPa, x2 = 0.7809	61.2
340 K, 2042.8 kPa, x2 = 0.5155	108.166
340 K, 2336.2 kPa, x2 = 0.7809	84.433
350 K, 169.93 kPa, x2 = 0.2648	8.273
350 K, 214.96 kPa, x2 = 0.5155	8.239
350 K, 232.62 kPa, x2 = 0.2648	11.414
350 K, 236.22 kPa, x2 = 0.7809	6.436
350 K, 294.24 kPa, x2 = 0.5155	11.366
350 K, 317.47 kPa, x2 = 0.2648	15.747
350 K, 323.59 kPa, x2 = 0.7809	8.879
350 K, 401.46 kPa, x2 = 0.5155	15.68
350 K, 431.39 kPa, x2 = 0.2648	21.726
350 K, 441.97 kPa, x2 = 0.7809	12.25
350 K, 545.49 kPa, x2 = 0.5155	21.633
350 K, 582.86 kPa, x2 = 0.2648	29.974
350 K, 601.65 kPa, x2 = 0.7809	16.901
350 K, 736.76 kPa, x2 = 0.5155	29.844
350 K, 780.99 kPa, x2 = 0.2648	41.355
350 K, 814.82 kPa, x2 = 0.7809	23.317
350 K, 986.94 kPa, x2 = 0.5155	41.173
350 K, 1033.9 kPa, x2 = 0.2648	57.055
350 K, 1095 kPa, x2 = 0.7809	32.168
350 K, 1306.5 kPa, x2 = 0.5155	56.803
350 K, 1345.8 kPa, x2 = 0.2648	78.717
350 K, 1457.2 kPa, x2 = 0.7809	44.338
350 K, 1700.8 kPa, x2 = 0.5155	78.365
350 K, 1709.1 kPa, x2 = 0.2648	108.602
350 K, 1912.8 kPa, x2 = 0.7809	61.169
350 K, 2092.9 kPa, x2 = 0.2648	149.834
350 K, 2162.7 kPa, x2 = 0.5155	108.113
350 K, 2462 kPa, x2 = 0.7809	84.391
350 K, 2654.5 kPa, x2 = 0.5155	149.152
360 K, 174.96 kPa, x2 = 0.2648	8.269
